Where two headings read alike, the source gives them in different places. One block for each compound: values may come before it.
Assays:
CFTR channel [1] = target: T1, CFTR channel (Homo sapiens, UniProt P13569); experiment: Efflux of radioactive iodide in recombinant CHO (CFTR+) cells; assay type: cell-based; design: expressed in transfected cells; host or cells: CHO-K1 cells, vector pNUT; conditions: for effect on the efflux of iodide / CFTR channel activation: 500 μM; for activation at 500 µM: read-out: % activation relative to control
Experimental: (§1) Several types of cells are used for this study: the intestinal lines T84, Caco-2 and HT 29. Chinese hamster ovary (CHO-K1) cells were transfected with the aid of the vector pNUT (Tabcharani et al., 1991) with or without (control cells) incorporation of normal or mutated CFTR cDNA (Chang et al., 1993). The cells are kept in this specific medium and then inoculated at a low density on to glass slides and cultured at 37° C. (5% CO2), before the patch clamping experiments. The survival medium of the cells is composed of αMEM with foetal calf serum (7%) and antibiotics: 50 IU/ml penicillin and 50 μg/ml streptomycin and methotrexate (100 μM to 200 μM).
(§2) This technique enables the kinetics of the exit of iodide to be monitored. The cells are cultured in 12-well plates with a dilution to 1/10 after passage. On day 3, the drugs to be tested are dissolved in medium B (37° C.) according to the required concentration. The wells are washed twice with 1 ml of medium B NaOH, 0.1% glucose, which is then replaced by 1 ml of charging solution for 30 min.
(§3) The operation is repeated over 10 min and the cells are then detached with 1 ml of NaOH 0.1N SDS 0.1%. The contents of each well are collected in a haemolysis tube after agitation for 25 min, and the tubes are counted for 2 min in a gamma counter.
(§4) The study relates to molecules of the benzoquinolizinium family described above. They are tested for their ability to activate the CFTR channel. Screening of molecules as openers of the CFTR channel was carried out by measuring their effect on the efflux of radioactive iodide and on the transmembrane chloride currents (Becq et al., 1993a).
2) CHO cell: efflux of radioactive iodide in
CHO cells transfected with the CFTR chain (labelled CHO-CFTR (+) on FIG. 2B) in the presence or absence of the abovementioned activators.

CFTR channel [2] = target: T1, CFTR channel; experiment: Efflux of radioactive iodide in HT29 cells; assay type: cell-based; design: the human colon cell of the line HT29 which expresses the protein CFTR constitutively; endogenous in cells; host or cells: HT29 human colon cells; conditions: 500 μM
Experimental: as §1, §2, §3

intracellular cAMP = experiment: Level of intracellular cAMP in recombinant CHO cell; assay type: cell-based, Chinese hamster; conditions: after 5 min
Experimental: as §4
FIG. 12: Histograms representing the levels of cAMP (measured in nmol per mg of protein) in the CHO cells which have been transfected with the CFTR gene and have not been activated (basal), or have been activated by forskoline (forskoline), or have been activated by rolipram (rolipram), or have been activated by MPB-07 (MPB-07).

CFTR channel [3] = target: T1, CFTR channel; experiment: Efflux of radioactive iodide in Xenopus ovocyte injected with cRNA-CFTR; assay type: cell-based; conditions: Xenopus ovocyte expressing CFTR, 500 μM
CHO (CFTR−) cells = experiment: Efflux of radioactive iodide in control CHO (CFTR−) cells not transfected with CFTR; assay type: cell-based, Chinese hamster
Source text: CHO cells which have not been transfected with the protein CFTR (labelled CHO-CFTR (−) on FIG. 2 B) in the presence or absence of the abovementioned activators:

CFTR channel [4] = target: T1, CFTR channel; experiment: Patch clamping, CFTR channel activation; assay type: cell-based; design: expressed in transfected cells; host or cells: CHO-K1 cells, vector pNUT; conditions: rolipram
Experimental: The patch clamping experiments are carried out on confluent cells. A fragment of the glass slide (cell support) is placed in an experimental chamber (volume 600 μl or 1 ml) on the platen of an inverted microscope fitted with phase contrast illumination (Olympus IMT2). The cell-attached and inside-out configurations are used (Hamill et al., 1981). The experiments are carried out at room temperature (20-22° C.). The currents are amplified with a LIST EPC 7 amplifier (Darmstadt, Germany) (filter of 3 kHz) with a low-pass filter of 2-5 kHz (6-pole Bessel filter) and recorded with a DAT (digital audio tape) after digitalization (16 bits) at 44 kHz. The data are then transferred to an Olivetti M28PC computer. The pipettes are made from glass tubes of 1 mm diameter (Clarke Electromedical Instrument) in two or three stages with a horizontal drawer (Flaming/Brown type, model P-87. Sutter. Inst. Co. USA). The pipettes filled with a solution of 150 mM NaCI have a resistance of between 4 and 12 MΩ. The potentials are expressed as the difference between the potential of the patch electrode and that of the bath. […] The diffusion potentials are evaluated from the potential of the electrode corresponding to a zero current (when the channels are closed). […] To determine the current-voltage ratio, the ionic current amplitudes are measured form amplitude histograms. […]

[5] = efflux of iodide, recombinant CHO (CFTR+) cell, MPB and phenanthrene 500 μM

T1 sequence (P13569 whole entry): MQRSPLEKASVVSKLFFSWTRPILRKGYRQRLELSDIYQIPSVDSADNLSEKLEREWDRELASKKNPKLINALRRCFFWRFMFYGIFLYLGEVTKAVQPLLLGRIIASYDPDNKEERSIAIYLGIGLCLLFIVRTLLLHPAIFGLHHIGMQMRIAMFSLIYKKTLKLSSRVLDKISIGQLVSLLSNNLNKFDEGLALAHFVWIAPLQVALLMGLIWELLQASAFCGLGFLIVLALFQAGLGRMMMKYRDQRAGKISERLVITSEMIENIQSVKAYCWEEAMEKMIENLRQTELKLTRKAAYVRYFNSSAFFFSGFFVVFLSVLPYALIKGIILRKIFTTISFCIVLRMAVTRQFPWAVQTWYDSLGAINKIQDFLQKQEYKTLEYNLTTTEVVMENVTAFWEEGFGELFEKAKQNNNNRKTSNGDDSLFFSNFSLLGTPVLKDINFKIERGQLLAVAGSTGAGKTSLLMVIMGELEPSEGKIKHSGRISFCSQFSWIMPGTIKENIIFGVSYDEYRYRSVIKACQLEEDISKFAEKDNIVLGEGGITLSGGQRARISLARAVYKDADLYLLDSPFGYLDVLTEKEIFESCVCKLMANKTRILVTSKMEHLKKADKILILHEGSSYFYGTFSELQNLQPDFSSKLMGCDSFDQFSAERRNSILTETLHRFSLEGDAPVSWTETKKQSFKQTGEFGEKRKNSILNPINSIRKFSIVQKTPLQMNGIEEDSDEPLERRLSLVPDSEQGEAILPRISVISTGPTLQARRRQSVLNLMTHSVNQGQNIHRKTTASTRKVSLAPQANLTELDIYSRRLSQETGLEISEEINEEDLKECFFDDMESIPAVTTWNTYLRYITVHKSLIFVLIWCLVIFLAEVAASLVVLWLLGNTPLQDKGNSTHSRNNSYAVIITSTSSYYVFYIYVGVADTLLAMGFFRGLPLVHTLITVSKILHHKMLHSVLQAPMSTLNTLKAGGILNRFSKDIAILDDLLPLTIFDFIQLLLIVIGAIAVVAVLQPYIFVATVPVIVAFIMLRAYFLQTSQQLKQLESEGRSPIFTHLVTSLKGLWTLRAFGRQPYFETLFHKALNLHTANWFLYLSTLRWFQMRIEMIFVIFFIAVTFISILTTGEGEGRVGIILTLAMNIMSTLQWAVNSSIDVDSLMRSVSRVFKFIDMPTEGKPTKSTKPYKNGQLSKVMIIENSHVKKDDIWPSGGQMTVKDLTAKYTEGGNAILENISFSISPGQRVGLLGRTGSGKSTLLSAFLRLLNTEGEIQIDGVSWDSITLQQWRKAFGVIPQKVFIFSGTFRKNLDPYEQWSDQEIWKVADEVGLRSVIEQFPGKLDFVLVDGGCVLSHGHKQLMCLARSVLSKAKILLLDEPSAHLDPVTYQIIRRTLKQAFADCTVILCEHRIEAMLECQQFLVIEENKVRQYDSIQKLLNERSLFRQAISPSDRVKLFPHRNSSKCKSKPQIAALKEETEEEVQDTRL

effect on the efflux of iodide / CFTR channel activation (CFTR channel [1]; CHO (CFTR+) cells): does not activate the CFTR channel
activation at 500 µM (CFTR channel [1]; [5]): < 5%
Compound: c1ccc2c(c1)ccc1ccccc12 [phenanthrene, reference compound]

activation at 500 µM (CFTR channel [1]; [5]): 22%
Compound: Oc1cc2cccc[n+]2c2cc(Cl)ccc12 [MPB-08, 6-Hydroxy, 9-Chlorobenzo[c]quinolizinium Chloride]

activation at 500 µM (CFTR channel [1]; [5]): 110%
effect on the efflux of iodide (CFTR channel [3]): stimulates the efflux of iodide
Compound: Oc1cc2cccc[n+]2c2c(Cl)cccc12.[Cl-] [MPB-07, 6-Hydroxy, 10-Chlorobenzo[c]quinolizinium Chloride]
effect on the efflux of iodide / CFTR channel activation (CFTR channel [1]; CHO (CFTR+) cells): comparable in intensity and rate to that induced by forskoline (5 μM)
effect on the efflux of iodide (CFTR channel [2]): triggers an efflux of iodide, with a similar rate and amplitude, which is increased with respect to the basal level
level of cell cAMP (intracellular cAMP; 500 μM): The same level of cAMP is reached in the presence of the compounds MPB-07 and rolipram
effect on the basal level of the efflux of iodide (CHO (CFTR−) cells; 500 μM): do not significantly modify the basal level of the efflux of iodide

% activation relative to control (CFTR channel [1]; efflux of iodide, recombinant CHO (CFTR+) cell, forskoline 5 μM): 109%
Compound: C=C[C@@]1(C)CC(=O)[C@]2(O)[C@@]3(C)[C@@H](O)CCC(C)(C)[C@@H]3[C@H](O)[C@H](OC(C)=O)[C@@]2(C)O1 [forskoline]
effect on cAMP, multiplication factor (intracellular cAMP; 5 μM): about 4
effect on the basal level of the efflux of iodide (CHO (CFTR−) cells; 5 μM): do not significantly modify the basal level of the efflux of iodide

Compound: Nc1cc2ccccc2c2ccccc12 [MPB-24]
activation at 500 µM (CFTR channel [1]): 18%

activation at 500 µM (CFTR channel [1]; [5]): 11%
Compound: Nc1cc2cccc[n+]2c2cccc(Cl)c12 [MPB-04, 6-Amino, 7-Chlorobenzo[c]quinolizinium Chloride]

% activation relative to control (CFTR channel [1]; [5]): 53%
Compound: 6-Hydroxbenzo[c]quinolizinium Bromide [MPB-06]

Compound: CNc1ccc2oc(C[C@H]3O[C@@]4(CC[C@H]3C)O[C@H]([C@H](C)C(=O)c3ccc[nH]3)[C@H](C)C[C@H]4C)nc2c1C(=O)O [Compound A23187, reference compound]
effect on the efflux of iodide (CFTR channel [1]; CHO (CFTR+) cells, 10 μM): has no effect
effect on the basal level of the efflux of iodide (CHO (CFTR−) cells; 10 μM): do not significantly modify the basal level of the efflux of iodide

Compound: Nc1ncnc2c1nc(Sc1ccc(Cl)cc1)n2[C@@H]1O[C@@H]2COP(=O)(O)O[C@H]2[C@H]1O [c-cpt-AMP, cyclic 8-(4-chlorophenylthio)-adenosine 3′,5′-monophosphate]
effect on the basal level of the efflux of iodide (CHO (CFTR−) cells; 500 μM): has no effect

effect as a CFTR activator measured by the flow of iodide (CFTR channel [1]; rolipram): has no effect as a CFTR activator
effect as a CFTR activator measured by patch clamping (CFTR channel [4]): has no effect as a CFTR activator
Compound: COc1ccc(C2CNC(=O)C2)cc1OC1CCCC1 (centres unmarked) [rolipram]
level of cell cAMP (intracellular cAMP; 10 μM): The same level of cAMP is reached in the presence of the compounds MPB-07 and rolipram

activation at 500 µM (CFTR channel [1]; [5]): 20%
Compound: Oc1cc2cccc[n+]2c2ccccc12 [MPB-05, 6-Hydroxybenzo[c]quinolizinium Chloride]

activation at 500 µM (CFTR channel [1]; [5]): 95%
Compound: Oc1cc2cccc[n+]2c2cccc(Cl)c12 [MPB-27, 6-Hydroxy, 7-Chlorobenzo[c]quinolizinium Chloride]

activation at 500 µM (CFTR channel [1]; [5]): 18%
Compound: Nc1cc2cccc[n+]2c2cc(Cl)ccc12 [MPB-03, 6-Amino, 9-Chlorobenzo[c]quinolizinium Chloride]

Compound: Oc1cc2ccccc2c2ccccc12 [MPB-25]
activation at 500 µM (CFTR channel [1]): 25%

% activation relative to control (CFTR channel [1]; [5]): 30%
Compound: Nc1cc2cccc[n+]2c2ccccc12 [MPB-26, 6-Aminobenzo[c]quinolizium]
